Values joined by “and” are separate entries in the source; they are usually repeats but may differ in a detail not shown here. Equal values may be shown once. Read-outs that look alike come from different tables or passages of the source.
What was measured:
[1] = tested on: Trypomastigotes of T. cruzi (Dm28c-Luc); test: microbe, parasite or virus in culture; format: cell-based, Trypanosoma cruzi; conditions: for IC50 / IC90: 24 h treatment; for IC50: mean ± SD, read-out: Anti-T. cruzi Activity Trypomastigotes IC50; for IC90: read-out: Anti-T. cruzi Activity Trypomastigotes IC90
Description: (§1) Genetically modified T. cruzi parasites, of clone Dm28c (TcI) expressing the firefly luciferase enzyme gene (Dm28c-Luc), were kindly provided by Dr. Cristina Henriques. T. cruzi Dm28c-Luc was maintained in a Vero cell cultivated in RPMI 1640 medium supplemented with 10% FBS. At 4-day post-infection (dpi), trypomastigotes, released in the cell culture supernatant, were harvested, followed by sedimentation (4000 rpm/20 min/4 °C) and quantification in a Neubauer chamber. Isolated trypomastigotes were used in the phenotypic screening assays as well as the antiparasitic activity in 3D cardiac microtissues, recovery (washout), and drug combination assays.
Drug screening was performed against clinically relevant forms of T. cruzi (amastigotes and trypomastigotes). Trypomastigotes, Dm28c-Luc (1 × 10^6 parasites/well), were added to 96-well plates and incubated with pyrazole-thiadiazole derivatives or Bz (100–0.41 µM). After 24 h of treatment (37 °C), the viability of the parasites was analyzed by adding a D-Luciferin solution (300 µg/mL) and luminescence was measured in the Glomax microplate reader.

[2] = tested on: Intracellular amastigotes of T. cruzi (Dm28c-Luc); test: microbe, parasite or virus in culture; format: cell-based, Trypanosoma cruzi; conditions: for IC50 / IC90: Trypanosoma cruzi; for IC90: read-out: Anti-T. cruzi Activity Intracellular Amastigotes IC90
Description: as §1
The activity of pyrazole-thiadiazole derivatives against intracellular amastigotes was evaluated in 24 h-T. cruzi infected Vero cell cultures (1.5 × 10^4 cells/well) at a 10:1 ratio. The cultures were washed and incubated with serial dilutions of the derivatives or Bz (100–0.41 µM). Drug treatment was carried out for 72 h at 37 °C and the parasite viability was determined by luminescence readout after D-Luciferin substrate addition (300 µg/mL). The reading was performed in the Glomax reader. The cell cultures incubated with the culture medium containing dimethylsulphoxide (DMSO; concentration ≤ 1%) were used as the […]. The concentrations required to inhibit parasite viability by 50% (IC50) and 90% (IC90) were calculated using Prism GraphPad software (version 8.2.1). The selectivity index (SI), which measures the window between cytotoxicity (CC50) and anti-T. cruzi activity (IC50), was calculated as CC50/IC50. A minimum of 3 independent assays in duplicate were performed.

[3] = Toxicity in mammalian cells (CellTiter Glo, 72 h); format: cell-based; conditions: African green monkey, Vero cells; 72 h, ATP levels; read-out: Cytotoxicity Vero Cells CC50
Description: (§2) Vero cell cultures grown in RPMI 1640 medium containing 10% fetal bovine serum (FBS) were cultured at 37 °C in a humidified atmosphere of 5% CO2 [82]. The cultures were used for drug screening assays and to obtain culture-derived trypomastigotes of T. cruzi.
(§3) Vero cells (1.5 ×10^4 cells/well), cultivated for 24 h at 37 °C in white 96-well plates with clear bottoms, were used to assess the toxicity of the pyrazole-thiadiazole derivatives (series 1 and 2). After washing, the cells were incubated for 72 h at 37 °C with different drug concentrations (500–1.95 μM). Cell viability was measured by adding 20 μL/well of CellTiter Glo reagent (Promega Corporation, Madison, WI, USA). This cell viability kit generates a luminescent signal proportional to the amount of ATP. The luminescence readout was performed using the Glomax Microplate Reader (Promega Corporation, Madison, WI, USA). Thus, the 50% cytotoxicity concentration (CC50), which reduces the cell viability by 50% (CC50), was calculated with Prism GraphPad software (version 8.2.1).

Vero cells = test: Toxicity in mammalian cells (CellTiter Glo, 72 h); format: cell-based
Description: as §2, §3

[4] = Cardiac toxicity in 2D cardiac monolayers (CellTiter-Glo, 72 h); format: cell-based, Swiss webster mice; conditions: Swiss webster, mouse, primary cardiac muscle cell monolayers (2D culture), ATP levels
Description: The primary culture of heart muscle cells was obtained from fetuses of Swiss webster mice. The heart was removed and the ventricles were fragmented and subjected to dissociation with trypsin and collagenase type II (Worthington Biochemical Corporation, Lakewood, USA) dissociation solution. Cell monolayers were employed to evaluate drug-induced cardiotoxicity.
(§4) The 2D cardiac cultures (5 × 10^4 cells/well) and 3D cardiac microtissues (2.5 × 10^4 cells/well) were incubated for 72 h at 37 °C with pyrazole-thiadiazole candidates followed by ATP detection by CellTiter-Glo [86]. A minimum of 3 independent assays were performed in duplicate.

[5] = Cardiac toxicity in 3D cardiac spheroids (CellTiter-Glo, 72 h); format: cell-based, Swiss webster mice; conditions: Swiss webster, mouse, 3D cardiac microtissue (cardiac spheroids), ATP levels, read-out: Toxicity CC50 3D Culture
Description: (§5) Three-dimensional (3D) cardiac cells were obtained as previously described. Briefly, isolated cardiac muscle cells (2.5 × 10^4 cells/well) were seeded in 96-well U-bottom plates coated with agarose (1%) to form cell aggregates. Cardiac microtissue (7 days in culture) was employed to determine cardiotoxicity and drug efficacy in more complex systems. All animal-use procedures were approved by the Animal Care and Use Committee of Instituto Oswaldo Cruz (license L017/2022-A2).
as §4

[6] = tested on: T. cruzi (Dm28c-Luc) intracellular parasites in 3D cardiac spheroids; test: Antiparasitic activity in T. cruzi-infected 3D cardiac microtissues; format: cell-based, Trypanosoma cruzi; conditions: 100 µM, 72 h
Description: as §5
Cardiac spheroids (2.5 × 10^4 cells/well), formed after 7 days of cultivation in a U-bottom plate, were infected for 24 h with trypomastigote forms of T. cruzi (Dm28c-Luc) at a ratio of 20:1 parasite-host cell. After washing, the drugs were added at concentrations of IC90, two times IC90, and 100 µM, respecting the CC20 value of cardiac spheroids as the maximum concentration. Bz was added at 100 µM. Luminescence measurements, which reveal the luciferase activity of the viable parasites, were performed after the addition of D-luciferin substrate (300 µg/mL). The luminescent signal was read in the Glomax reader and the results were represented in arbitrary luminescence units (ALU). The fluorescence microscopy images were also acquired from untreated and drug-treated infected 3D microtissues. Three-dimensional cultures were fixed with 4% paraformaldehyde in PBS and labeled with 4′,6-diamidino-2-phenylindole (DAPI). Images were acquired using a Zeiss Axio Imager M2 fluorescence microscope using Axio vision software (version 4.8).

[7] = tested on: T. cruzi (Dm28c-Luc) in Vero cell cultures; test: Washout (recovery) assay in T. cruzi-infected Vero cell cultures; format: cell-based, Trypanosoma cruzi; conditions: for ALUmean of parasite load in cell monolayer, washout assay: 10 days treatment + 10 days without drug
Description: The culture medium of the untreated and treated infected cultures was replaced every 3 or 4 days by a fresh medium with or without the pyrazole-thiadiazole derivatives. The presence of free viable parasites in the culture supernatant was monitored at each medium change by adding luciferin (300 µg/mL) followed by readout on a Glomax microplate reader. At the endpoint, culture supernatants and cell monolayers were evaluated for viable parasites. Positive and negative controls were performed using Bz (150 µM) and DMSO (≤1%), respectively. A minimum of 3 independent experimental runs were performed with 12 replicates.

Leishmania = tested on: Leishmania; parameters: method as in PMID 32492796; conditions: cited from earlier work
[8] = Trypanosoma cruzi, 24 h, Dm28c-Luc
[9] = Vero, read-out: Intracellular Amastigotes pIC50 (converted)
[10] = Dm28c-Luc in Vero cells, 72 h treatment, mean ± SD, read-out: Anti-T. cruzi Activity Intracellular Amastigotes IC50
[11] = Dm28c-Luc in Vero cells, 72 h treatment, mean ± SD

SMILES	IC50 [1, 8]	IC90 ([1]; Trypanosoma cruzi, Dm28c-Luc)	IC50 [2, 9]	IC50 [2, 10]	IC90 [2, 11]	CC50 at 72 h [3]	melting point	Trypomastigotes SI (CC50 of Vero cells/IC50 of trypomastigotes) [1]	Intracellular Amastigotes SI (CC50 of Vero cells/IC50 of intracellular amastigotes) [2]	other results
Nc1nnc(-c2cnn(-c3ccc(Cl)cc3Cl)c2)s1 [1c, 5-Amino-2-(1-(2,4-dichlorophenyl)-1H-pyrazol-4-yl)-1,3,4-thiadiazole]	21.7 µM	> 100 µM	13.5 µM	13.5 ± 4.47 µM	42.3 ± 3.47 µM	> 500 µM	284 to 285 °C			Trypomastigotes IC75 ([1]; Dm28c-Luc, 24 h): 54.6 µM and 54.66 µM; IC50 ([1]; Dm28c-Luc): 21.7 ± 2.94 µM; CC20 for Vero cell monolayers (Vero cells): > 500 µM; CC50 at 72 h [4]: > 500 µM; CC50 at 72 h [5]: > 500 µM; ALUmean (luminescence, parasite load) in 3D cardiac microtissue [6]: 17,078 ± 2407 ALU; inhibition at 100 µM ([6]; Trypanosoma cruzi, vs infected untreated, read-out: Inhibition of parasite load in 3D cardiac microtissue): 57%; ALUmean of parasite load in cell monolayer, washout assay ([7]; 150 µM): 57,103 ± 15,228 ALU; ALUmean of parasite load in cell monolayer, washout assay ([7]; 300 µM): 66,378 ± 14,991 ALU; inhibition at 150 µM ([7]; Trypanosoma cruzi, Vero, 150 µM, 11 dpi, read-out: Inhibition in the release of trypomastigotes): 52%; inhibition at 300 µM ([7]; Trypanosoma cruzi, Vero, 300 µM, 11 dpi, read-out: Inhibition in the release of trypomastigotes): 66%; Prevention of reactivation of infection after drug withdrawal ([7]; washout assay): trypanostatic action
Nc1nnc(-c2cnn(-c3ccc(Cl)cc3Cl)c2N)s1 [2c, 5-Amino-2-(5-amino-1-(2,4-dichlorophenyl)-1H-pyrazol-4-yl)-1,3,4-thiadiazole]	> 100 µM	> 100 µM	> 70.8 µM	> 70 µM	> 70 µM	> 500 µM	165 to 167 °C	>5	>7.14	Reduction of the release of trypomastigotes ([7]; washout assay, concentration and day not stated): ≥ 82%
Nc1nnc(-c2cnn(-c3ccc(F)cc3)c2N)s1 [2g, 5-Amino-2-(5-amino-1-(4-fluorophenyl)-1H-pyrazol-4-yl)-1,3,4-thiadiazole]	> 100 µM	> 100 µM	> 70.8 µM	> 70 µM	> 70 µM	> 500 µM	251 to 253 °C	>5	>7.14	
Nc1nnc(-c2cnn(-c3cccc(F)c3)c2N)s1 [2h, 5-Amino-2-(5-amino-1-(3-fluorophenyl)-1H-pyrazol-4-yl)-1,3,4-thiadiazole]	> 100 µM	> 100 µM	> 70.8 µM	> 70 µM	> 70 µM	> 500 µM	285 to 286 °C	>5	>7.14	
Nc1nnc(-c2cnn(-c3ccc(Br)cc3)c2N)s1 [2i, 5-Amino-2-(5-amino-1-(4-bromophenyl)-1H-pyrazol-4-yl)-1,3,4-thiadiazole]	> 100 µM	> 100 µM	69.2 µM	68.73 ± 0.05 µM	> 70 µM	> 500 µM	286 to 287 °C	>5	>7.58	
Nc1nnc(-c2cnn(-c3cccc(Br)c3)c2N)s1 [2j, 5-Amino-2-(5-amino-1-(3-bromophenyl)-1H-pyrazol-4-yl)-1,3,4-thiadiazole]	> 100 µM	> 100 µM	> 70.8 µM	> 70 µM	> 70 µM	> 500 µM	245 to 246 °C	>5	>7.14	
COc1ccc(-n2ncc(-c3nnc(N)s3)c2N)cc1 [2l, 5-Amino-2-(5-amino-1-(4-methoxyphenyl)-1H-pyrazol-4-yl)-1,3,4-thiadiazole]	> 100 µM	> 100 µM	> 70.8 µM	> 70 µM	> 70 µM	> 500 µM	303 to 305 °C	>100	>7.14	
C[C@@H]1[C@H](O)[C@@H](C)/C=C/C=C/C=C/C=C/C=C/C=C/C=C/[C@H](O[C@@H]2O[C@H](C)[C@@H](O)[C@H](N)[C@@H]2O)C[C@@H]2O[C@](O)(C[C@@H](O)C[C@@H](O)[C@H](O)CC[C@@H](O)C[C@@H](O)CC(=O)O[C@H]1C)C[C@H](O)[C@H]2C(=O)O [amphotericin B]										EC50 (Leishmania; 2D model): 0.0349 µM; EC50 (Leishmania; 3D macrophage cultures): 0.0523 µM; Increase in the EC50 value of 3D vs 2D macrophage cultures (Leishmania): 33%

Reference: publication PMC11314410, “Synthesis and Anti-Trypanosoma cruzi Activity of New Pyrazole-Thiadiazole Scaffolds” (Molecules, 2024)
